{
  "source": "patent US12364674B2",
  "about": "“Compounds and combinations thereof for treating neurological and psychiatric conditions” (priority 2022, dated 2025)",
  "key": {"[1]": {"assay": "Example 2: pharmacokinetics of the subject combination in CYP2D6 poor metabolizers", "conditions": "3 CYP2D6 poor metabolizers", "from_the_text": "Approximately 7 to 10% of Caucasians and 3 to 8% of African Americans lack the capacity to metabolize CYP2D6 substrates and are classified as poor metabolizers."}, "[2]": {"assay": "Example 3: co-administration of paroxetine and the subject combination in healthy volunteers", "from_the_text": "Co-administration of the SSRI paroxetine and the subject combination was studied in 29 healthy volunteers."}, "[3]": {"assay": "Example 1: subject combination in subjects with moderate renal impairment vs matched controls", "conditions": "moderate renal impairment (GFR 30-60 mL/min)"}, "[4]": {"assay": "Steady-state pharmacokinetics of dextromethorphan, bupropion and metabolites after administration of the subject combination", "conditions": "for changes in AUC and Cmax with dose (dose proportionality): steady state, co-administered with bupropion"}, "[5]": {"assay": "Example 4: exposure to the 45 mg dextromethorphan hydrobromide/105 mg bupropion hydrochloride tablet in moderate renal impairment (FIG. 1)", "conditions": "8 days of twice daily dosing of the tablet"}, "[6]": {"conditions": "human, in vivo"}, "[7]": {"conditions": "human, in vivo", "remark": "listed apart in the source"}},
  "note": "Where a name gives a salt, the structure may show the parent alone. Read-outs that look alike come from different tables or passages of the source.",
  "data": [
    {"molecule": "COc1ccc2c(c1)[C@]13CCCC[C@@H]1[C@H](C2)N(C)CC3", "note": "[dextromethorphan, morphinan, 3-methoxy-17-methyl-, (9α, 13α, 14α), hydrobromide monohydrate]", "values": [
      {"measurement": "increase in AUC0-12 compared to extensive metabolizers", "setting": "[1]", "value": "~3.4", "unit": "fold"},
      {"measurement": "increase in Cmax compared to extensive metabolizers", "setting": "[1]", "value": "~3", "unit": "fold"},
      {"measurement": "change of overall exposure on co-administration of paroxetine", "setting": "[2]; 29 healthy volunteers, paroxetine with the subject combination", "value": 2.5, "unit": "fold"},
      {"measurement": "reduction of clearance vs matched controls with normal renal function", "setting": "[3]", "value": 50, "unit": "%"},
      {"measurement": "increase of exposure vs matched controls with normal renal function", "setting": "[3]; 7 subjects vs 6 controls", "value": "approximately 2 fold"},
      {"measurement": "increase of mean elimination half-life compared to dextromethorphan given without bupropion", "setting": "[4]; 8 days of administration of the subject combination, extensive metabolizers", "value": "approximately 3 fold"},
      {"measurement": "changes in AUC and Cmax with dose (dose proportionality)", "setting": "[4]; varying doses of bupropion (75 to 150 mg)", "value": "less than dose-proportional"},
      {"measurement": "changes in AUC and Cmax with dose (dose proportionality)", "setting": "[4]; varying doses of dextromethorphan (30 to 60 mg)", "value": "greater than dose-proportional"},
      {"measurement": "mean elimination half-life", "setting": "[4]; subject combination", "value": 22, "unit": "h"},
      {"measurement": "increase in AUC0-12 (GMR vs matched healthy subjects)", "setting": "[5]", "value": 2.21, "unit": "fold"},
      {"measurement": "increase in Cmax (GMR vs matched healthy subjects)", "setting": "[5]", "value": 2.10, "unit": "fold"}
    ]},
    {"molecule": "CC(NC(C)(C)C)C(=O)c1cccc(Cl)c1.Cl", "note": "(racemic) [bupropion, (±)-1-(3-chlorophenyl)-2-[(1,1-dimethylethyl)amino]-1-propanone hydrochloride]", "values": [
      {"measurement": "increase of exposure vs matched controls with normal renal function", "setting": "[6]", "value": "approximately 2 fold"},
      {"measurement": "reduction of clearance vs matched controls with normal renal function", "setting": "[6]", "value": 50, "unit": "%"},
      {"measurement": "increase in AUC0-12 (GMR vs matched healthy subjects)", "setting": "[7]", "value": 1.80, "unit": "fold"},
      {"measurement": "increase in Cmax (GMR vs matched healthy subjects)", "setting": "[7]", "value": 1.87, "unit": "fold"}
    ]},
    {"molecule": "Fc1ccc([C@@H]2CCNC[C@H]2COc2ccc3c(c2)OCO3)cc1", "note": "[paroxetine]", "values": [
      {"measurement": "increase of overall exposure of paroxetine when co-administered with the subject combination", "setting": "[2]; human, in vivo", "value": 1.2, "unit": "fold"}
    ]}
  ]
}
